Experimental data published in article PMC8484864 (Peptides, 2021).
“Also recorded” adds a separate entry of the source.

Key:
[1] = tested on: apelin receptor; settings: SAR study of short ELA fragments; cited from earlier work
[2] = human kidney homogenised in 50 mM HEPES solution, pH 7.4; settings: 37 °C, up to 120 min
[3] = tested on: furin; experiment: buffer-based ELA-32 digestion study; settings: cited from earlier work
[4] = rat plasma in vitro; settings: cited from earlier work
[5] = human plasma, pooled from four healthy human donors; settings: 37 °C, up to 240 min

Sequence | binding to the apelin receptor (in words) [1] | fragment found [2] | fragment found [3] | fragment found [4] | cleaved bond [5]
LHSRVPFP [ELA-8, ELA-32 fragment from loss of N-terminal amino acids] | completely lost its ability to bind the apelin receptor |  |  |  | 
QRPVNLTMRRKLRKHNCLQRRCMPLHSRVPFP |  | ELA-23, earliest time points; also recorded: ELA-17, 60 min | ELA-11 | ELA-22; also recorded: ELA-32(1-9) | R-R and L-R, major, 60 min and R-K, first_seen, within 2 min and H-N, major, 60 min and Arg21-Cys22, major, 60 min and proline-phenylalanine
